The text below walks through data of patent publication US9051592B2, “Methods of ganglioside production” (Garnet BioTherapeutics, Inc., priority 2012, dated 2015).

Read-outs that look alike come from different tables or passages of the source.

In data set [1] the test system is Adult Human Bone Marrow Cells.
Data set [2] relates to Affected sheep bone marrow cells (SBM). In words: GM1 induction in affected sheep bone marrow cells by different treatments, CTB-Alexa 488 staining (Table 2). The following applies: affected SBM 20,000 cells/well, 72 H (Poly-L-Lysine coated coverslips 6 Days).
The subject of another data set is ADSC. Type of data set: cell-based, Human.
For data set [3], the system named is PC12 (rat adrenal medulla tumor) cells. The following applies: Yuyama et al., FEBS Lett. 580:6972-6976 (2006); cited from earlier work.
The subject of the next data set is GBT-ABMSC. In kind it is cell-based, Human.
Another data set has as its system SHSY-S. Type of data set: cell-based.
Data set [4] has as its system GBT-ABMSC, Lonza BMSC, Lonza ADSC, dermal fibroblast and GM1 fb cells. Type of data set: cell-based, Human.
The test system of data set [5] is HT22 (mouse hippocampal) cells. Conditions: Hirata et al., J. Neurochem. 119:839-847 (2011); cited from earlier work.
Another data set relates to GM1 fibroblast. In kind it is cell-based, Human.
The test system of a further data set is SK-N-AS. Type of data set: cell-based.
The subject of data set [6] is Human bone marrow cells (HBM). Conditions: HBM 20,000 cells/well, serum-free medium 72 H, chloroquine 48 H.
The next data set has as its system CHO-K1. Type of data set: cell-based, Chinese Hamster.
The subject of another data set is Dermal fibroblast. Type of data set: cell-based, Human.
Another data set concerns Lonza BMSC. In words: GM1 induction by CLQ treatment, CTB-Alexa488 staining (Table 4). In kind it is cell-based, Human. Conditions: Lonza MSC basal medium + growth supplements, 10,000 per well, CLQ 48-120 hours. Here is the method:
Human bone marrow-derived stromal cells, adipose-derived stromal cells, dermal fibroblasts, and fibroblasts from subjects diagnosed with GM1 gangliosidosis, as well as immortalized neuroblastoma cells (SHSY-5Y, SHSY-S and SK-N-AS), Chinese Hamster Ovary cells (CHO-K1), and Human Embryonic Kidney cells (HEK293) were purchased from commercial sources. Cells were cultured on 24 well plates in standard culture medium, at a density of 2000-20,000 cells/well overnight and either maintained in standard culture medium (CONTROL) or treated with chloroquine (CLQ) according to the conditions listed in Table 4 below. Cells were maintained in a tissue culture incubator at approximately 37° C. in a humidified atmosphere comprising approximately 5% CO2 and approximately 21% O2 balanced with N2. After treatment for 48-120 hours, the cells were fixed with 4% paraformaldehyde and stained with CTB-Alexa488 to detect GM1 ganglioside. Extensive GM1 accumulation is evident in most cells types compared to controls maintained in standard culture media alone. (FIGS. 10 and 11 and Table 4).

Data set [7] relates to SHSY-5Y, SHSY-S, SK-N-AS, CHO-K1 and HEK293 cells. In kind it is cell-based.
Another data set concerns SHSY-5Y. In kind it is cell-based, human.
For another data set, the system named is HEK293. In kind it is cell-based, Human.
Data set [8] concerns Affected sheep bone marrow cells (SBM).
In data set [9] the test system is human bone marrow-derived cells (HBM). In words: GM1 up-regulation, CTB-HRP normalized to Alamar Blue (Example 3, FIG. 3). Type of data set: cell-based. In general terms: The colour change of resazurin is a common sign of viable cells or microbes.
Data set [10] has as its system Parkinson's disease subjects. The following applies: five-year study; Schneider et al., J. Neurol. Sci. 292:45-51 (2010); cited from earlier work.
For data set [11] the following is noted: pretreatment; background statement; cited from earlier work.
Data set [12] relates to Parkinson's disease subjects. Conditions: short-term treatment; Schneider et al., Neurology 50:1630-1636 (1998); cited from earlier work.
Data set [13] deals with central nervous system lesions in experimental animals. Conditions: background statement; cited from earlier work.

With `O=C[C@H](O)[C@@H](O)[C@@H](O)[C@H](O)CO` [Switch from No glucose to galactose, galactose], the “Cell Death” value in the data set on SHSY-5Y cells is “−”.

`CCN(CC)CCCC(C)Nc1ccnc2cc(Cl)ccc12` (centres unmarked) [Chloroquine, chloroquine]: the Cell Death is given as 10-20% in [1] and “+” in the data set with SHSY-5Y cells. Further, the “Degree of GM1 Staining” value was “also induced GM1, but not as much as CLQ/NIM” in data set [2] (listed as CLQ); “+++++” in data set [6]; “most intense staining” in data set [6] (listed as CLQ). For the same compound, the “% Increase in Degree of Staining with induction” value is given as 28% in the data set on ADSC; 65% in the data set with GBT-ABMSC; 19% in the data set with SHSY-S; 28% in the data set with GM1 fibroblast; 19% in the data set with SK-N-AS; 83% with CHO-K1. Also, the “% Increase in Degree of Staining with induction” value with Dermal fibroblast was determined as 63%; with Lonza BMSC, 119%; with SHSY-5Y it was 104%; with HEK293, 15%. Besides, the “accumulation in PC12 cells” value in data set [3] is recorded as “induce accumulation”. In addition, the “GM1 signal (CTB-Alexa488) compared to control conditions, FIG. 11” value in [4] was “more abundant and intense compared to control conditions for all cell types”. In addition, the “GM1 levels in HT22 cells” value in [5] is “only moderately increased GM1 levels”. In addition, the “GM1 signal (CTB-Alexa488) compared to control conditions, FIG. 10” value in data set [7] is “more abundant and intense compared to control conditions for all cell types”. For the same compound, in data set [8], the “Degree of Cell Death” value is on record as “+”. The “up-regulation of GM1 expression (CTB-HRP normalized to Alamar Blue) versus control” value in data set [9] is given as “approximately 8 fold”.

PDGF: the “Degree of Cell Death” value in data set [8] is given as “−”.

`CCCCCCCCCCCCC/C=C/[C@@H](O)[C@H](CO[C@@H]1O[C@H](CO)[C@@H](O[C@@H]2O[C@H](CO)[C@H](O[C@@H]3O[C@H](CO)[C@H](O)[C@H](O[C@@H]4O[C@H](CO)[C@H](O)[C@H](O)[C@H]4O)[C@H]3NC(C)=O)[C@H](O[C@]3(C(=O)O)C[C@@](O)(CO)[C@@H](NC(C)=O)[C@H]([C@H](O)CO)O3)[C@H]2O)[C@H](O)[C@H]1O)NC(=O)CCCCCCCCCCCCCCCCC` [GM1]: in data set [10], the “clinical benefit of long-term use” value was “may provide some clinical benefit” and the “safety of long-term use” value was “safe”. The “damage resulting from neurotoxin exposures” value in data set [11] was “inhibits damage”. Further, in data set [12], the symptom reduction entry is recorded as “significant symptom reduction”. Further, the “recovery from central nervous system lesions” value in data set [13] was “significant biochemical and behavioral recovery”.

As to `N[C@H]1C(O)O[C@H](CO)[C@@H](O)[C@@H]1O` (some centres unmarked) [Glucosamine, glucosamine], the “Degree of GM1 Staining” value in data set [2] was “also induced GM1, but to a lesser degree”.
